# Results as given in patent US20110293653A1, “ANTAGONISTS OF MIR-155 FOR THE TREATMENT OF INFLAMMATORY LIVER DISEASE” (UNIVERSITY OF MASSACHUSETTS, priority 2010, published 2011).
# “Also recorded” adds a separate entry of the source. Where a SMILES comes first, the peptide text is derived from it. The star is where a group is joined. Cbz = O=C(OCc1ccccc1)*
# System: miR155
# Assay: miR155 expression (qPCR) in RAW cells after ethanol and/or LPS stimulation with NF-κB inhibitor
# Assay type: cell-based
# Settings: RAW cells pretreated 48 h with ethanol (50 mM) and MG-132 (0.25 μM) or Bay 11-7082 (0.1 uM), LPS 100 ng/mL 2 h
# Method: FIG. 8. […] RAW cells were exposed or not to ethanol (50 mM) and MG-132 (0.25 μM) for 48 hours and were further stimulated with LPS (100 ng/mL) for 2 hours. Expression of miR155 was assayed by qPCR and data were normalized to sno202 control. The fold increase in the expression of miR155 versus nonstimulated cells is shown. Data represent the mean value (s.e.m. as error bars) of at least three independent experiments. Statistically significant differences are shown.
# C. Cell culture and reagents. RAW 264.7 macrophages were purchased from American Type Culture Collection and maintained in Dulbecco's modified medium (Invitrogen Life Technologies, Carlsbad, Calif.) containing 10% FBS (HyClone, South Logan, Utah) at 37° C. in a 5% CO2 atmosphere. […]
# E. RNA analysis. RNA was purified using the RNeasy kit (Qiagen Sciences, Maryland, USA) or mirVana™ miRNA Isolation Kit (Ambion) if miRs were to be analyzed. […] Quantitative RT-PCR analyses for miR-125b, miR-146aa, miR155 and sno202, used as normalizing control, were performed using TaqMan miRNA assays with reagents, primers, and probes obtained from Ambion. […] Real-time quantitative polymerase chain reaction was performed using the iCycler (Bio-Rad Laboratories Inc., Hercules, Calif.), as described previously (Romics et al., supra). […] Relative expression was calculated using the comparative threshold cycle (Ct) method. […]
row,SMILES,miR155 levels after ethanol and/or LPS stimulation
1,Cc1ccc(S(=O)(=O)/C=C/C#N)cc1 [Bay 11-7082],decrease
2,CC(C)C[C@@H](C=O)NC(=O)[C@H](CC(C)C)NC(=O)[C@H](CC(C)C)NC(=O)OCc1ccccc1 [MG-132] (Cbz-Leu-Leu-Leu-aldehyde),decrease; also recorded: prevented miR155 increase
